{"source": "patent US20130252331A1", "about": "“COMPOSITIONS AND METHODS FOR MODULATING METABOLISM” (priority 2010, published 2013)", "key": {"[1]": {"system": "3T3L1 cells", "assay": "Adipogenesis of 3T3L1 cells, Oil Red O staining for lipid accumulation", "format": "cell-based", "settings": "3T3L1 cells differentiated for eight days in increasing concentrations", "text": "FIG. 1 includes eight micrographs showing that the inhibition of BET protein family members blocks adipogenesis in a dose dependent manner in 3T3L1 cells, which is a cell line that is widely used as a model for adipogenesis. […] Following drug treatment cells were stained with Oil Red O as a measure of lipid accumulation that indicates the degree of adipocyte differentiation.\n3T3L1 cells are a well characterized cell type that can be differentiated into fat cells that contain large lipid droplets. […] The cells were differentiated for eight days. On the final day, the cells were stained with Oil Red O, which stains for lipid accumulation in the cells."}, "[2]": {"system": "PPARγ", "assay": "PPARγ gene expression in 3T3L1 cells during adipocyte differentiation (RT-PCR)", "format": "cell-based", "settings": "500 nM, first four days of differentiation", "method": "(§1) C/EBPα and PPARγ are essential, positive regulators of adipogenesis. […] Results were obtained using RT-PCR.\n(§2) Gene expression levels of two key proteins that function in fat cell differentiation, C/EBPα and PPARγ, were measured over the first four days of differentiation."}, "[3]": {"system": "ob/ob mice", "assay": "Liver and subcutaneous fat weight and liver H&E histology in ob/ob mice"}, "[4]": {"system": "C57B/6 male mice", "assay": "Insulin tolerance test in C57B/6 mice on high fat diet", "format": "in vivo, mouse", "method": "FIG. 9B is a graph of the area under the curve (AUC) of the data in FIG. 9A.\n8 week old C57B/6 male mice were started on a high fat diet containing 60% kcal fat. […] Body weight was measured every week. The mice were then examined for the degree of insulin resistance by insulin tolerance testing. […] Following insulin injection blood glucose was measured at the indicated time points."}, "[5]": {"system": "ob/ob mice", "assay": "Weight gain, food intake and feed efficiency in ob/ob mouse obesity model", "format": "in vivo", "settings": "50 mg/kg, 14 days", "text": "FIGS. 3A-3E are graphs showing that inhibition of BET family members blocks weight gain in ob/ob mice, a murine obesity model that lacks leptin.\nOb/ob mice are a well established mouse obesity model that gains weight rapidly on a normal mouse chow diet. […] Without wishing to be bound by theory, it is likely that the disparity is due to differences in the way that ob/ob mice treated with JQ are metabolizing food relative to untreated ob/ob mice."}, "[6]": {"system": "C/EBPα", "assay": "C/EBPα gene expression in 3T3L1 cells during adipocyte differentiation (RT-PCR)", "format": "cell-based", "settings": "500 nM, first four days of differentiation", "method": "as §1, §2"}, "[7]": {"assay": "Unspecified biological assay", "settings": "assay not specified"}, "[8]": {"system": "genes that control fat accumulation in liver", "assay": "Liver RNA expression of genes that control fat accumulation in ob/ob mice", "format": "in vivo, mouse", "settings": "two weeks of treatment", "method": "Following treatment, the organs were harvested and liver RNA was isolated to measure gene expression profiles. The expression levels of a panel of genes that function in the control of fat accumulation in liver were measured."}, "[9]": {"settings": "approximately two weeks of treatment"}}}
{"smiles": "Cc1sc2c(c1C)C(c1ccc(Cl)cc1)=N[C@H](CC(=O)OC(C)(C)C)c1nnc(C)n1-2", "note": "[JQ (R) enantiomer]", "values": [{"measurement": "adipogenesis / lipid accumulation (Oil Red O staining)", "setting": "[1]", "result": "no effect on the generation of lipid"}]}
{"smiles": "Cc1sc2c(c1C)C(c1ccc(Cl)cc1)=N[C@@H](CC(=O)OC(C)(C)C)c1nnc(C)n1-2", "note": "[JQ]", "values": [{"measurement": "induction of PPARγ expression", "setting": "[2]", "result": "significantly blocked the induction"}, {"measurement": "liver weight", "setting": "[3]; [9]", "result": "statistically significant reductions"}, {"measurement": "subcutaneous fat weight", "setting": "[3]; [9]", "result": "statistically significant reductions"}, {"measurement": "hepatic steatosis / liver histology (H&E)", "setting": "[3]; two week treatment", "result": "complete block in hepatic steatosis"}, {"measurement": "blood glucose after insulin injection", "setting": "[4]; 7 weeks high fat diet and 50 mg/kg daily, 4 h fast, insulin 0.5 U/kg intraperitoneal", "result": "sustained decrease in blood glucose up to 2 hours"}, {"measurement": "area under the curve for change in blood glucose", "setting": "[4]; 2 hour time course after insulin, p<0.05", "result": "statistically significant decrease"}, {"measurement": "food intake", "setting": "[5]", "result": "mildly inhibited"}, {"measurement": "weight gain", "setting": "[5]", "result": "blocked weight gain"}, {"measurement": "induction of C/EBPα expression", "setting": "[6]", "result": "significantly blocked the induction"}]}
{"smiles": "Cc1sc2c(c1C)C(c1ccc(Cl)cc1)=N[C@@H](CC(=O)NN)c1nnc(C)n1-2", "note": "[Compound 3]", "values": [{"measurement": "activity in at least one biological assay", "setting": "[7]", "result": "showed activity"}]}
{"smiles": "Cc1sc2c(c1C)C(c1ccc(Cl)cc1)=N[C@@H](CC(=O)OC(C)(C)C)c1nnc(C)n1-2", "note": "[JQ1 (S) enantiomer, (S)-tert-Butyl 2-(4-(4-chlorophenyl)-2,3,9-trimethyl-6H-thieno[3,2-f][1,2,4]triazolo[4,3-a][1,4]diazepin-6-yl)acetate]", "values": [{"measurement": "adipogenesis / lipid accumulation (Oil Red O staining)", "setting": "[1]", "result": "inhibited lipid accumulation"}, {"measurement": "adipogenesis / lipid accumulation (Oil Red O staining)", "setting": "[1]; listed as JQ (S) enantiomer", "result": "inhibited adipogenesis in a dose dependent manner"}]}
{"smiles": "Cc1sc2c(c1C)C(c1ccc(Cl)cc1)=N[C@@H](CC(=O)N/N=C/c1ccc(O)cc1)c1nnc(C)n1-2", "note": "[Compound 4]", "values": [{"measurement": "activity in at least one biological assay", "setting": "[7]", "result": "showed activity"}]}
{"smiles": "Cc1sc2c(c1C)C(c1ccc(Cl)cc1)=N[C@@H](CC(=O)OC(C)(C)C)c1nnc(C(F)(F)F)n1-2", "note": "[JQ11]", "values": [{"measurement": "liver expression of ACC beta", "setting": "[8]", "result": "reduced the expression"}, {"measurement": "liver expression of DGAT", "setting": "[8]", "result": "reduced the expression"}, {"measurement": "liver expression of FAS", "setting": "[8]", "result": "not statistically significant"}, {"measurement": "liver expression of PPARγ2", "setting": "[8]", "result": "reduced the expression"}, {"measurement": "liver expression of SCD1", "setting": "[8]", "result": "reduced the expression"}, {"measurement": "liver expression of SREBP", "setting": "[8]", "result": "reduced the expression"}]}
